Measured values: ChEMBL document CHEMBL1201862, “PubChem BioAssay data set” (2004)
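Values below derive from 48-hour exposures of cells grown in 96-well plates, with endpoints linearly interpolated between the two concentrations bracketing the appropriate inhibition level. GI50 marks 50% less growth.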 Calls of active or inactive are those of the source. Cut-off read from the data, not from the text of the source: active = GI50 up to about 1.1 µM and inactive = higher.

Legend:
Assay in all cases: NCI tumour cell line growth inhibition, 48 h
NCI-H226 = system: NCI-H226
SF-295 = system: SF-295
OVCAR-8 = system: OVCAR-8
K562 = system: K562
T47D = system: T47D
SN12C = system: SN12C
NCI-H23 = system: NCI-H23
OVCAR-3 = system: OVCAR-3
SW-620 = system: SW-620
PC-3 = system: PC-3
SK-OV-3 = system: SK-OV-3
IGROV-1 = system: IGROV-1
SK-MEL-28 = system: SK-MEL-28
OVCAR-5 = system: OVCAR-5
Malme-3M = system: Malme-3M
786-0 = system: 786-0
RPMI-8226 = system: RPMI-8226
MCF7 = system: MCF7
A498 = system: A498
RXF 393 = system: RXF 393

Row | Compound | GI50 (NCI-H226) | GI50 (SF-295) | GI50 (OVCAR-8) | GI50 (K562) | GI50 (T47D) | GI50 (SN12C) | GI50 (NCI-H23) | GI50 (OVCAR-3) | GI50 (SW-620) | GI50 (PC-3) | GI50 (SK-OV-3) | GI50 (IGROV-1) | GI50 (SK-MEL-28) | GI50 (OVCAR-5) | GI50 (Malme-3M) | GI50 (786-0) | GI50 (RPMI-8226) | GI50 (MCF7) | GI50 (A498) | GI50 (RXF 393)
1 | O=C1C[C@@H](c2ccc(O)cc2)[C@@]2(O1)C(=O)O[C@H]([C@@H](O)CO)[C@@H]2O | > 100 µM (inactive) | > 100 µM (inactive) | > 100 µM (inactive) | > 100 µM (inactive) | > 100 µM (inactive) | > 100 µM (inactive) | > 100 µM (inactive) | > 100 µM (inactive) | > 100 µM (inactive) | > 100 µM (inactive) | > 100 µM (inactive) | > 100 µM (inactive) | > 100 µM (inactive) | > 100 µM (inactive) | > 100 µM (inactive) | > 100 µM (inactive) | > 100 µM (inactive) | > 100 µM (inactive) | > 100 µM (inactive) | 
2 | CN(C)CCNc1ccccn1 | > 100 µM (inactive) | > 100 µM (inactive) | > 100 µM (inactive) | > 100 µM (inactive) | > 100 µM (inactive) | > 100 µM (inactive) | > 100 µM (inactive) | > 100 µM (inactive) | > 100 µM (inactive) | > 100 µM (inactive) |  | > 100 µM (inactive) | > 100 µM (inactive) | > 100 µM (inactive) | > 100 µM (inactive) | > 100 µM (inactive) |  |  | > 100 µM (inactive) | > 100 µM (inactive)
3 | CCCC1(CCC)c2cc(/C=N\O)ccc2-c2ccc(-c3ccc(C(C)(C)C)cc3)cc21 |  | 33.2 µM (inactive) | 32.5 µM (inactive) | 45.7 µM (inactive) | 57.5 µM (inactive) | 23.1 µM (inactive) | 48.3 µM (inactive) | 22.9 µM (inactive) | 34.2 µM (inactive) | 59.6 µM (inactive) | > 100 µM (inactive) | 61.9 µM (inactive) | 26.7 µM (inactive) | > 100 µM (inactive) | > 100 µM (inactive) | 37.4 µM (inactive) | 33.7 µM (inactive) | 25.6 µM (inactive) | > 10 µM (inactive) | 
4 | CC(C)=NNC1=NC(C)(C)P(=O)(NNc2ncccn2)S1 (configuration not stated) |  | > 100 µM (inactive) | > 100 µM (inactive) | > 100 µM (inactive) | > 100 µM (inactive) |  | > 100 µM (inactive) | > 100 µM (inactive) | > 100 µM (inactive) | > 100 µM (inactive) | > 100 µM (inactive) | > 100 µM (inactive) | > 100 µM (inactive) | > 100 µM (inactive) |  | > 100 µM (inactive) |  | > 100 µM (inactive) | > 100 µM (inactive) | > 100 µM (inactive)
5 | NC1CC2NC3CCCCC3NC2CC1N (configuration not stated) | 48.9 µM (inactive) | 31.8 µM (inactive) | 27.4 µM (inactive) | 31.8 µM (inactive) |  | 35 µM (inactive) | 32.4 µM (inactive) | 40.8 µM (inactive) | 24.1 µM (inactive) | 50.9 µM (inactive) | 28.4 µM (inactive) | 55.2 µM (inactive) | 74.5 µM (inactive) | 42.7 µM (inactive) | 46.6 µM (inactive) | 30 µM (inactive) | 37.5 µM (inactive) | 0.776 µM (active) | 26.8 µM (inactive) | 23.7 µM (inactive)
6 | CN1CN(c2ccccc2)C2(CCN(CC(C)(c3ccc(F)cc3)C3OCCCO3)CC2)C1=O (configuration not stated) | 18.9 µM (inactive) | 18.4 µM (inactive) | 19.4 µM (inactive) | 13.2 µM (inactive) | 17.7 µM (inactive) | 18.1 µM (inactive) | 14.9 µM (inactive) | 11.5 µM (inactive) | 20.6 µM (inactive) | 17.4 µM (inactive) | 26.4 µM (inactive) | 18.5 µM (inactive) | 16.8 µM (inactive) | 8.69 µM (inactive) | 15.6 µM (inactive) | 20.4 µM (inactive) | 10.2 µM (inactive) | 13 µM (inactive) |  | 19.7 µM (inactive)
7 | COc1ccc(C2C3=CONC3CC3CCCCC32)cc1 (configuration not stated) | > 100 µM (inactive) |  | 85.7 µM (inactive) | 39.4 µM (inactive) | 35.6 µM (inactive) |  | 35.2 µM (inactive) | 39.8 µM (inactive) | > 100 µM (inactive) | 30.6 µM (inactive) |  | > 100 µM (inactive) | 68.4 µM (inactive) | > 100 µM (inactive) | 43.3 µM (inactive) | 46.7 µM (inactive) | 28.8 µM (inactive) | 12.8 µM (inactive) |  | 
8 | CC(C)CC1C(=O)NCCC(NC(=O)C(Cc2ccc(OC(C)(C)C)cc2)NC(=O)OC(C)(C)C)C(=O)NC(Cc2ccccc2)C(=O)NC(Cc2ccccc2)NC1=O (configuration not stated) | 5.06 µM (inactive) | 5.75 µM (inactive) | 5.68 µM (inactive) | 3.02 µM (inactive) | 3.69 µM (inactive) | 16.5 µM (inactive) | 13.3 µM (inactive) | 4.6 µM (inactive) | 2.54 µM (inactive) | 14.5 µM (inactive) | 22 µM (inactive) | 16 µM (inactive) | 18.3 µM (inactive) | 6.25 µM (inactive) | 13.6 µM (inactive) | 1.71 µM (inactive) | 9.75 µM (inactive) | 17 µM (inactive) |  | 10.3 µM (inactive)
